Reference: patent US8916712B2, “Compositions and methods for cytoprotection” (Board of Trustees of the University of Arkansas, priority 2007, dated 2014)

Experiments:
white pulp splenocytes = assay: Total body irradiation of mice (8 Gy), TUNEL-positive white pulp splenocytes; type: in vivo, mouse
Source text: Mice were exposed to total body irradiation and the radioprotective effects of Zn^+-chelates administered before or after the irradiation were examined. Each unanesthetized mouse was placed temporarily in a well ventilated plexiglass restrainer and exposed to total body irradiation from a cesium irradiator. A dose of 8 Gy was chosen on the basis of previous studies utilizing male CD-1 mice (Bichay et al., 1986, supra). A total of 6-10 animals per group were used. The animals were allowed to survive for 36 hr after irradiation.
To test for radioprotective effects, Zn-DIPS was injected subcutaneously twice a day 15 mg/kg each time (i.e., 30 mg/kg/day). One group of animals (“before”) received Zn-DIPS starting 2 days before irradiation and continued until 36 hr after irradiation. Another group (“after”) was injected with Zn-DIPS about 30 min […] irradiation and continued until euthanasia. “Vehicle” control animals were injected with vehicle (i.e., saline) for the duration of the experiment, and irradiated with the same dose.
FIG. 12 presents the number of TUNEL-positive cells in white pulp splenocytes from the different groups.

[1] = molecular target: T1, rat serum DNase (predominantly rat DNase I) (Rattus norvegicus, UniProt P21704); assay: Plasmid incision assay of endonuclease activity, rat serum DNase; type: biochemical; details: 0, 100 or 200 μM; 1 hour at 37° C.; pBR322 plasmid DNA
T1 construct: rat serum DNase (which is predominantly rat DNase I); from tissue; host or cells: rat serum
T1 sequence (P21704 23-284): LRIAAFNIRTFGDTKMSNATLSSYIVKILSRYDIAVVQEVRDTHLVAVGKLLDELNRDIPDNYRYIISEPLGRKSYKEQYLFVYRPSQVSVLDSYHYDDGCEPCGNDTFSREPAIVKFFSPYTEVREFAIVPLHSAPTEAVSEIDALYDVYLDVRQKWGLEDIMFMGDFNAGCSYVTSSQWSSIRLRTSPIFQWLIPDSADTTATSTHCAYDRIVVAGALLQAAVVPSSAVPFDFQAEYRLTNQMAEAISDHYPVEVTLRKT
Experimental: (§1) Endonuclease activity was measured using a plasmid incision assay. Activity was measured in 20 μl samples containing 1 μg pBR322 plasmid DNA, 10 mM Tris-HCl, pH 7.7, 25 μg/ml bovine serum albumin V fraction, 0.5 mM dithiothreitol, 5 mM MgCl2, 2 mM CaCl2, and 2 μl endonuclease. After 1 hour incubation at 37° C., the reaction was stopped by the addition 5 μl 1% SDS, 100 mM EDTA. Digested DNA was then subjected to a 1% agarose gel electrophoresis at 7 V/cm for 1 hour at room temperature. The gel was stained in 0.5 μg/ml ethidium bromide solution for 20 minutes and photographed under […]. Scanning densitometer Fotodyne (Fotodyne Inc., Hartland, Wis.) was utilized to quantify the relative amount of endonuclease-treated plasmid DNA present in a covalently closed circular DNA (cccDNA), open circular DNA (ocDNA) or linear DNA (linDNA). One endonuclease unit was defined as the amount of enzyme required to convert 1 μg cccDNA to ocDNA and linDNA.
(§2) Recombinant DNase I and rat serum DNase (which is predominantly rat DNase I) were incubated with 0, 100, or 200 μM of a Zn^2+-chelate (i.e., Zn-3,5-diisopropylsalicylic acid (DIPS), Zn-gluconate, or Zn-glycinate), a ligand (i.e., DIPS, gluconic acid, or glycine, as negative controls), or ZnCl2 (as positive control).

FRTL-5 thyroid cells = assay: Radiation-induced thyroid cell death (450 Gy), LDH release assay or Comet assay; type: cell-based; details: added after radiation, 24 hr
Experimental: FRTL-5 thyroid cells (ATCC, catalog #CRL8305) were irradiated with 450 Gy without or with Zn^2+-chelates added before and/or after irradiation. […] In another experiment, Zn^2+-chelates (i.e., Zn-captopril, Zn-NAC, Zn-penicillamine, or Zn-PTCA) were added to human U937 cells either 30 minutes before, immediately after, or up to 4 hours after irradiation (4 Gy).

[2] = molecular target: T2, recombinant human DNase I (Homo sapiens, UniProt P24855); assay: Plasmid incision assay of endonuclease activity, recombinant DNase I; type: biochemical
T2 construct: Recombinant DNase I was produced using a similar approach; made in house
T2 sequence (P24855 23-282): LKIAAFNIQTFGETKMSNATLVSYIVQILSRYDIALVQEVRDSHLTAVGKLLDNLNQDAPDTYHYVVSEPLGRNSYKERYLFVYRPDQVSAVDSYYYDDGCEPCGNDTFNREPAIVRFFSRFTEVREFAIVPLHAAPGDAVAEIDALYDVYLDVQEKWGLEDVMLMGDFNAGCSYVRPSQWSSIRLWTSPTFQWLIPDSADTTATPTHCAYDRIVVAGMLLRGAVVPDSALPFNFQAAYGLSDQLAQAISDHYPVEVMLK
Experimental: It was hypothesized that Zn^2+-chelates of aminothiols could provide radioprotection via their direct inhibition of nucleases and their antioxidant properties (i.e., prevent nuclease induction and release). To test this hypothesis, the activity of Zn(II) chelates to inhibit nucleases was assayed in vitro. For this, DNase I and EndoG were cloned, recombinant nuclease were expressed and purified for the in vitro assay. Human and mouse mature EndoG cDNA was reverse transcribed by RT-PCR from either normal human breast epithelial HMEC cells (Clonetics, Walkersville, Md.) or immortalized mouse proximal tubule epithelial TKPTS cells (obtained from D. Elsa Bello-Reuss, University of Texas Medical Branch, Galveston). The plasmid for mature human EndoG (A49-K297) with a C-terminal histidine tag and mouse mature EndoG (A45-K294) with a C-terminal histidine tag were constructed by inserting coding cDNA into pET29b(+) (Novagen, San Diego, Calif.) and expressed in Escherichia coli BL21 (DE3) cells using standard procedures. Expression of the recombinant proteins was induced by IPTG. The expressed recombinant protein was purified by HisTrap FF crude Kit (GE Healthcare, Uppsala, Sweden) and stored in 20 mM Tris-HCl, ph 7.5, 0.5 M NaCl, 2 mM 2-mercaptoethanol, and 50% glycerol.
as §1, §2

With “Zn-3,5-diisopropylsalicylic acid [Zn-DIPS]” the “Radioprotection (TUNEL-positive white pulp splenocytes), administered before irradiation” value (white pulp splenocytes; 15 mg/kg s.c. twice a day from 2 days before until 36 hr after irradiation) was “partial radioprotection”, the “Radioprotection (TUNEL-positive white pulp splenocytes), administered after irradiation” value (white pulp splenocytes; 15 mg/kg s.c. twice a day, "after" group) was “partial radioprotection” and the “Protection of spleen compared with inactivation of DNase I” value (white pulp splenocytes; versus DNase I knock-out mice) was “better protection”. The “Inhibition of serum DNase activity” value [1] was “inhibited”, the “Protection from radiation-induced thyroid cell death” value (FRTL-5 thyroid cells) was “provided protection” and the “Inhibition of DNase I activity” value ([2]; 0, 100 or 200 μM, 1 hour at 37° C., pBR322 plasmid DNA) was “inhibited”. The “Ranking of nuclease inhibition among the Zn^2+-chelates tested” value ([2]; DNase I and serum DNase, FIG. 5) was “best inhibition”.
